Legend:
human V1a receptor = human V1a receptor (Homo sapiens (Human), UniProt P37288); assay: Cellular in vitro assay for determining vasopressin receptor activity (V1a, aequorin luminescence); assay type: cell-based; conditions: for IC50: CHO cell line transfected with human V1a receptor, [Arg8]-vasopressin at EC50 concentration, read-out: IC50 hV1a; for ratio IC50 hV2/hV1a: selectivity, IC50 hV2 divided by IC50 hV1a
human V2 receptor = human V2 receptor (Homo sapiens (Human), UniProt P30518); assay: Cellular in vitro assay for determining vasopressin receptor activity (V2, CRE-luciferase); assay type: cell-based; conditions: CHO cell line transfected with human V2 receptor; [Arg8]-vasopressin at EC50 concentration; read-out: IC50 hV2
Chain of human V2 receptor (P30518 whole entry): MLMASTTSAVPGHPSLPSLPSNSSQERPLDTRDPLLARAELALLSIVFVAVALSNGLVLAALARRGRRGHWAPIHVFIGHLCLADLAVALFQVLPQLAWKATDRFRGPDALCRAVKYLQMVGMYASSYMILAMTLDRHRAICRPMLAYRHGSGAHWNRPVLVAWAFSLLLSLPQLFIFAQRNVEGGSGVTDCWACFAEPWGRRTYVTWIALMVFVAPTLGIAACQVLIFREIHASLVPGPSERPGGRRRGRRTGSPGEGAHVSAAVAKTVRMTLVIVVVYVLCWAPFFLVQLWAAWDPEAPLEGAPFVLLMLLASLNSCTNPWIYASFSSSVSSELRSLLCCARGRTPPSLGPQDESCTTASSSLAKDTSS

Chain of human V1a receptor (P37288 whole entry): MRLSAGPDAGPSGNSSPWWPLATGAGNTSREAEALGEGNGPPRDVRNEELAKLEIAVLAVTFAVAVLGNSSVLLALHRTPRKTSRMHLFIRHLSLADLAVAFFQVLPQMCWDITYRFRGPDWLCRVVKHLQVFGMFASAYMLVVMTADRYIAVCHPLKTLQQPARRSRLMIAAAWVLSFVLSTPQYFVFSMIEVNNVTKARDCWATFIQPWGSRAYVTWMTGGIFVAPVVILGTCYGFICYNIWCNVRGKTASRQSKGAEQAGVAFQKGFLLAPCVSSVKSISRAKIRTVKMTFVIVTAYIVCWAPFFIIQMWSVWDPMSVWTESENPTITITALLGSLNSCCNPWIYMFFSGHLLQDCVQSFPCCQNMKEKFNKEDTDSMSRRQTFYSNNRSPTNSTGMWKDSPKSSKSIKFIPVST

Row | IC50 (human V1a receptor) | ratio IC50 hV2/hV1a (human V1a receptor) | IC50 (human V2 receptor) | SMILES
1 | 1.17 nM | 67.0 | 78.2 nM | O=C(CCC(F)(F)F)NC(Cn1c(-c2ccc(Cl)cc2)nn(Cc2ncn(-c3ncccc3Cl)n2)c1=O)C(F)(F)F (racemic) [Example 32, N-{3-[3-(4-Chlorophenyl)-1-{[1-(3-chloropyridin-2-yl)-1H-1,2,4-triazol-3-yl]methyl}-5-oxo-1,5-dihydro-4H-1,2,4-triazol-4-yl]-1,1,1-trifluoropropan-2-yl}-4,4,4-trifluorobutanamide]
2 | 2.2 nM | 46.1 | 102 nM | CS(=O)(=O)NCC(=O)NC(Cn1c(-c2ccc(Cl)cc2)nn(Cc2ncn(-c3ncccc3Cl)n2)c1=O)C(F)(F)F (racemic) [Example 19, N-{3-[3-(4-Chlorophenyl)-1-{[1-(3-chloropyridin-2-yl)-1H-1,2,4-triazol-3-yl]methyl}-5-oxo-1,5-dihydro-4H-1,2,4-triazol-4-yl]-1,1,1-trifluoropropan-2-yl}-N^2-(methylsulfonyl)glycinamide]
3 | 0.82 nM | – | 33.5 nM | O=C(CCC(F)(F)F)NC(Cn1c(-c2ccc(Cl)cc2)nn(Cc2ncn(-c3ncccc3Cl)n2)c1=O)C(F)(F)F (single isomer, unassigned) [Example 34, N-{3-[3-(4-Chlorophenyl)-1-{[1-(3-chloropyridin-2-yl)-1H-1,2,4-triazol-3-yl]methyl}-5-oxo-1,5-dihydro-4H-1,2,4-triazol-4-yl]-1,1,1-trifluoropropan-2-yl}-4,4,4-trifluorobutanamide]
4 | 370 nM | – | 9870 nM | O=C(NC(Cn1c(-c2ccc(Cl)cc2)nn(Cc2ncn(-c3ncccc3Cl)n2)c1=O)C(F)(F)F)C1CS(=O)(=O)C1 (single isomer, unassigned) [Example 40, N-{3-[3-(4-Chlorophenyl)-1-{[1-(3-chloropyridin-2-yl)-1H-1,2,4-triazol-3-yl]methyl}-5-oxo-1,5-dihydro-4H-1,2,4-triazol-4-yl]-1,1,1-trifluoropropan-2-yl}thietane-3-carboxamide 1,1-dioxide]
5 | 1.95 nM | 54.4 | 106 nM | O=C(NC(Cn1c(-c2ccc(Cl)cc2)nn(Cc2ncn(-c3ncccc3Cl)n2)c1=O)C(F)(F)F)C1NCC1(F)F (stereo not shown) [Example 55, N-{3-[3-(4-Chlorophenyl)-1-{[1-(3-chloropyridin-2-yl)-1H-1,2,4-triazol-3-yl]methyl}-5-oxo-1,5-dihydro-4H-1,2,4-triazol-4-yl]-1,1,1-trifluoropropan-2-yl}-3,3-difluoroazetidine-2-carboxamide]
6 | 18.5 nM | 83.8 | 1550 nM | CC(F)(F)C(=O)NC(Cn1c(-c2ccc(Cl)cc2)nn(Cc2ncn(-c3ncccc3C(F)(F)F)n2)c1=O)C(F)(F)F (racemic) [Example 60, N-{3-[3-(4-Chlorophenyl)-5-oxo-1-({1-[3-(trifluoromethyl)pyridin-2-yl]-1H-1,2,4-triazol-3-yl}methyl)-1,5-dihydro-4H-1,2,4-triazol-4-yl]-1,1,1-trifluoropropan-2-yl}-2,2-difluoropropanamide]
7 | 31.5 nM | 62.8 | 1980 nM | O=C(NC(Cn1c(-c2ccc(Cl)cc2)nn(Cc2ncn(-c3ncccc3Cl)n2)c1=O)C(F)(F)F)C1CCN1 (stereo not shown) [Example 57, N-{3-[3-(4-Chlorophenyl)-1-{[1-(3-chloropyridin-2-yl)-1H-1,2,4-triazol-3-yl]methyl}-5-oxo-1,5-dihydro-4H-1,2,4-triazol-4-yl]-1,1,1-trifluoropropan-2-yl}azetidine-2-carboxamide]

Row | SMILES | IC50 (human V1a receptor) | ratio IC50 hV2/hV1a (human V1a receptor) | IC50 (human V2 receptor)
8 | O=C(CF)NC(Cn1c(-c2ccc(Cl)cc2)nn(Cc2ncn(-c3ncccc3Cl)n2)c1=O)C(F)(F)F (racemic) [Example 8] | 42.5 nM | 51.8 | 2200 nM

Reference: patent US11149023B2, “Substituted triazole derivatives and uses thereof” (Bayer Pharma Aktiengesellschaft, priority 2017, dated 2021)
